This passage reports Papp, IC50 and efflux ratio results from US12303509B2, “Compounds for the treatment of BRAF-associated diseases and disorders” (Pfizer Inc., priority 2020, dated 2025).

Series [1] is described as follows: MDR1 LLC-PK1 and BCRP MDCKII permeability assay: permeability coefficient (Papp). Format: in vitro ADME. The text has this: (§1) Final organic concentration in the assay was 1%.
Another series relates to H1755 cells. The experiment in a line: Cellular phospho-ERK inhibition assay in H1755 cells. Format: cell-based. The note with it: Homo sapiens, NCI-H1755, 2 hours treatment, read-out: H1755 Cell IC50. On the procedure: A375 and H1755 cells were obtained from the American Type Culture Collection (ATCC, Rockville, MD). A375 cells were maintained in DMEM growth medium containing 10% FBS. H1755 cells were maintained in RPMI growth medium containing 10% FBS.
Cells were harvested according to standard protocols, counted and plated onto flat-bottom, 96-well tissue culture plates (Costar #3599) at 2.5×10^4 cells/well for A375 cells and 1.5×10^4 cells/well for H1755 cells in 100 μL/well of growth medium containing 10% FBS. After an overnight incubation at 37° C. with 5% CO2 cells were treated for 2 hours at 37° C., 5% CO2 with compounds prepared as a 9-point, 1:3.33 fold dilution series with final compound concentrations ranging from 66 pM-10 μM and a constant DMSO concentration of 0.25%. Control wells contained either 0.25% DMSO alone (uninhibited control) or 10 μM binimetinib (complete inhibition control). The levels of phosphorylated ERK are determined using an In Cell Western protocol: following compound incubation, growth medium was discarded, and cells were fixed with 0.4% formaldehyde in PBS for 20 minutes at room temperature. Cells were permeabilized with 100% methanol for 10 minutes at room temperature. Plates were washed with PBS containing 0.05% Tween-20 and blocked for 1 hour at room temperature with LI-COR Blocking Buffer (LI-COR Biosciences; Cat #927-40000). Plates were then incubated for 2 hours at room temperature with 50 μL of a 1:400 dilution of anti-phospho-ERK1/2 (Thr202/Tyr204) (Cell Signaling; Cat #9101) and a 1:1000 dilution of anti-GAPDH (Millipore; Cat #MAB374) in LI-COR blocking buffer containing 0.05% Tween-20. Plates were washed with PBS containing […] Tween-20 then incubated at room temperature for 1 hour with 50 μL of a 1:1000 dilution of anti-rabbit AlexaFluor 680 (Life Technologies; Cat #A21109) and a 1:1000 dilution of anti-mouse IRDye 800CW (LI-COR; Cat #926-32210) in LI-COR blocking buffer containing 0.05% Tween-20. Plates were analyzed by reading on an Odyssey CLx infrared scanner. For each well, the phospho-ERK signal was normalized to the GAPDH signal and converted to POC using the following equation:
[formula] • Where: • Xmax Average Uninhibited Controls • Xmin Average Complete Inhibition Controls IC50 values were then calculated using a 4-parameter fit in XLfit software and are provided in Table A1.

The test system of a further series is A375 cells. The experiment in a line: Cellular phospho-ERK inhibition assay in A375 cells. The class given is cell-based. The note with it: Homo sapiens, A-375, A375 cells (head prints A357), 2 hours treatment, read-out: A357 cell IC50. The method, boiled down: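 In Cell Western detection of phospho-ERK1/2 (Thr202/Tyr204) over GAPDH after 2 h compound exposure (66 pM to 10 μM, 9 points, 0.25% DMSO) of A375 cells in DMEM or H1755 cells in RPMI, both with 10% FBS. Percent of control set by DMSO and 10 μM binimetinib; 4-parameter IC50.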

In another series the target is P-gp (MDR1) (Homo sapiens (Human), UniProt P08183). Description: MDR1 LLC-PK1 permeability assay: efflux ratio. The class given is in vitro ADME. The note with it: pig.
Chain of P-gp (MDR1) (P08183 whole entry, species assumed): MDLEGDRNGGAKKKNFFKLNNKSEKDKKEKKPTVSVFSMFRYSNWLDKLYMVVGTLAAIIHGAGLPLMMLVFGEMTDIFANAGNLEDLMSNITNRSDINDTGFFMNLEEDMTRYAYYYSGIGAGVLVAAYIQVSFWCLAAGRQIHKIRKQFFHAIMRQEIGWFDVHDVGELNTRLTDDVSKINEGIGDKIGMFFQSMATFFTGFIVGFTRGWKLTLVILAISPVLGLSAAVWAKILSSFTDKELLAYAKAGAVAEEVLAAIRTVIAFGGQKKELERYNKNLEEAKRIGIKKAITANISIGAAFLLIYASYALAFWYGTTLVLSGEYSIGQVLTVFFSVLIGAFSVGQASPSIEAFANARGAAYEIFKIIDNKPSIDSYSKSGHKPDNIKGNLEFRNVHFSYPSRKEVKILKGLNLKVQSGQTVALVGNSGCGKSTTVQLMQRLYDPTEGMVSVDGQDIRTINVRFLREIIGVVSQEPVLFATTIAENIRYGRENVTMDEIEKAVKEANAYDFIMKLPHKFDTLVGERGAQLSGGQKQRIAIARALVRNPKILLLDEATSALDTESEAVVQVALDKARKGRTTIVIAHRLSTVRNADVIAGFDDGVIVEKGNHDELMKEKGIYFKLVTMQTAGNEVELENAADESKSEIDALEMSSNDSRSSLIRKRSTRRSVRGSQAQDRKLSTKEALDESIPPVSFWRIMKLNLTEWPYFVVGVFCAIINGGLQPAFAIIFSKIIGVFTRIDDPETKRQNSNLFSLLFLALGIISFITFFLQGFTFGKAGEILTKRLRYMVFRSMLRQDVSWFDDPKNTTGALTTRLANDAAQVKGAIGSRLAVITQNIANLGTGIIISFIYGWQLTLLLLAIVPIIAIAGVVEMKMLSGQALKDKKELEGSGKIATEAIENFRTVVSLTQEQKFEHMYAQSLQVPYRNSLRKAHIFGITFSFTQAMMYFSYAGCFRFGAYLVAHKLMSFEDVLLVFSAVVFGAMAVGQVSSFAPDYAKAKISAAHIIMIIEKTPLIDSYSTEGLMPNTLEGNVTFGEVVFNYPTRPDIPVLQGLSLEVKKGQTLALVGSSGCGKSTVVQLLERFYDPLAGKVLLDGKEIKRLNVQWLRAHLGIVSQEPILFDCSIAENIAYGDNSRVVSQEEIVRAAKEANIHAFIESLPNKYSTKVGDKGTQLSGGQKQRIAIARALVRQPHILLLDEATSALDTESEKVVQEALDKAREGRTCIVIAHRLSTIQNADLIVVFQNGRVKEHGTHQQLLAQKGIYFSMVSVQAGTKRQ
Excerpt: as §1

The target in the next series is BCRP (Homo sapiens (Human), UniProt Q9UNQ0). The experiment in a line: BCRP MDCKII permeability assay: efflux ratio. The class given is in vitro ADME. The settings on record: dog.
Chain of BCRP (Q9UNQ0 whole entry): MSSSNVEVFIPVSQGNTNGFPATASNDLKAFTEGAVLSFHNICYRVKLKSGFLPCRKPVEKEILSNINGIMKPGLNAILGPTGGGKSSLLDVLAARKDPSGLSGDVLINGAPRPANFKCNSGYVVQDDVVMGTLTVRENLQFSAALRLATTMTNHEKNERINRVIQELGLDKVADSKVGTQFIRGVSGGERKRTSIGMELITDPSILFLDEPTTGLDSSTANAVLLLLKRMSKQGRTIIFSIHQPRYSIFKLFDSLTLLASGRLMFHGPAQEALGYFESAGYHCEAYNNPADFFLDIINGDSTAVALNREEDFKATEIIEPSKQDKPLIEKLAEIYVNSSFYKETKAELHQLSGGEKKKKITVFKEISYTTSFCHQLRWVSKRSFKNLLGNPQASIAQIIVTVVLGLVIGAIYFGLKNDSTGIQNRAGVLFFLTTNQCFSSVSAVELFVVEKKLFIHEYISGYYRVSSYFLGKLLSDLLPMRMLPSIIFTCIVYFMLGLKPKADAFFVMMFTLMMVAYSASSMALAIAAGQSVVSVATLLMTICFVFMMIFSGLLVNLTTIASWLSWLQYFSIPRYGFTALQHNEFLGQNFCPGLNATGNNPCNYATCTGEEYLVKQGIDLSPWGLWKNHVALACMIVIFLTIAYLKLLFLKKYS
The target of series [2] is full-length FLAG-tagged B-Raf(V600E) (Homo sapiens (Human), UniProt P15056, V600E). The experiment in a line: BRAF V600E enzyme assay (TR-FRET competitive displacement). Format: binding. The settings on record: averaged IC50; TR-FRET tracer displacement, 60 min. In a few lines:
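TR-FRET tracer competition: compound (top dose 10 μM, 3-fold, 11 points) incubated 60 min at ambient temperature with FLAG-tagged full-length B-Raf(V600E) (5 nM), Eu anti-FLAG cryptate (0.5 nM) and tracer (50 nM), pH 7.4 HEPES/MgCl2 buffer. 665/615 ratio converted to percent of control; IC50 where fitted curve crosses 50 POC.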
(In TR-FRET formats the signal depends on donor and acceptor labels being close together.)

Structures are written as SMILES. Where a name gives a salt, the structure may show the parent alone.

The Papp is the rate of passage across a membrane or cell layer, normalised by area and donor concentration. What is called IC50 is the concentration at which inhibition is half-maximal. What is called efflux ratio is the permeability from basolateral to apical divided by that in the opposite direction, in the common usage.

Chain of full-length FLAG-tagged B-Raf(V600E) (P15056 whole entry V600E): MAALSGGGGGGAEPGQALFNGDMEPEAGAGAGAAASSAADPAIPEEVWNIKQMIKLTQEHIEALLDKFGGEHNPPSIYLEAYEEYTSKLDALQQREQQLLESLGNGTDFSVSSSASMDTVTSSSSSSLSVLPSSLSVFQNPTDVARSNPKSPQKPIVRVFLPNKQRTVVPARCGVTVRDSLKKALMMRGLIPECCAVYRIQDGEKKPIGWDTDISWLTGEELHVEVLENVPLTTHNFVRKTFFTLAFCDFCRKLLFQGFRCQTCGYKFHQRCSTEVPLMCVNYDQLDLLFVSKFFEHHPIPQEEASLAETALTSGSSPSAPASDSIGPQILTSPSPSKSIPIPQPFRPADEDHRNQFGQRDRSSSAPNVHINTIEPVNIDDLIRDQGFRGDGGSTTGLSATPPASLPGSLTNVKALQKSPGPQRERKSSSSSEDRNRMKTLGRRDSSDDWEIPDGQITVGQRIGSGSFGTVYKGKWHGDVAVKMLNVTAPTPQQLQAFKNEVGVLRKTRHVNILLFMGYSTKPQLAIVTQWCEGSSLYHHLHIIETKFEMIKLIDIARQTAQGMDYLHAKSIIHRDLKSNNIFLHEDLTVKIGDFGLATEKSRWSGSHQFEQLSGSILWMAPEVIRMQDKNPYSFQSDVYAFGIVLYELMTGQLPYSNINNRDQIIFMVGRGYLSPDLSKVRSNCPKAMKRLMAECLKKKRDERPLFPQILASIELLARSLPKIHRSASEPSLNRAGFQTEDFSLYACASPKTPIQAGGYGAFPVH

As to `Cn1cnc2ccc(Nc3c(F)ccc(NS(=O)(=O)N4CCCC4)c3Cl)c(Br)c2c1=O` [Example 11, N-(3-((5-bromo-3-methyl-4-oxo-3,4-dihydroquinazolin-6-yl)amino)-2-chloro-4-fluorophenyl)pyrrolidine-1-sulfonamide trifluoroacetate], in series [1], the Papp at 2 h, 1 µM came to 28 ×10⁻⁶ cm/s. The IC50 in the series on H1755 cells came to 75 nM; in the series with A375 cells it was 17 nM; in series [2], 7 nM. For the same compound, the efflux ratio at 2 h, 1 µM came to 1.3 at P-gp (MDR1) and 0.8 on BCRP.
In series [1], `Cn1cnc2ccc(Nc3c(F)ccc(NS(=O)(=O)N4C[C@@H](F)[C@@H](F)C4)c3Cl)c(F)c2c1=O` [Example 21, cis-N-(2-chloro-4-fluoro-3-((5-fluoro-3-methyl-4-oxo-3,4-dihydroquinazolin-6-yl)amino)phenyl)-3,4-difluoropyrrolidine-1-sulfonamide] gave an apparent permeability coefficient (Papp) at 2 h, 1 µM of 26 ×10⁻⁶ cm/s. For the same compound, the results for the concentration for half-maximal inhibition (IC50) (in the series with H1755 cells; in the series on A375 cells; in series [2]) were 33 nM, 7 nM and 3 nM, respectively. In addition, the figures for the efflux ratio at 2 h, 1 µM on P-gp (MDR1) and at BCRP were 5.6 and 13, respectively.
Regarding `Cn1cnc2ccc(Nc3c(F)ccc(NS(=O)(=O)N4C[C@@H](F)[C@@H](F)C4)c3Cl)c(Cl)c2c1=O` [Example 22, cis-N-(2-chloro-3-((5-chloro-3-methyl-4-oxo-3,4-dihydroquinazolin-6-yl)amino)-4-fluorophenyl)-3,4-difluoropyrrolidine-1-sulfonamide], the Papp at 2 h, 1 µM in series [1] worked out at 34 ×10⁻⁶ cm/s. The IC50 came out at 52 nM in the series on H1755 cells, 15 nM with A375 cells and 3 nM in series [2]. For the same compound, the results for the efflux ratio at 2 h, 1 µM on P-gp (MDR1) and on BCRP were 2.7 and 5.6, respectively.
As to `Cn1cnc2ccc(Nc3c(F)ccc(NS(=O)(=O)N4CCC(F)(F)C4)c3Cl)c(F)c2c1=O` [Example 23, N-(2-chloro-4-fluoro-3-((5-fluoro-3-methyl-4-oxo-3,4-dihydroquinazolin-6-yl)amino)phenyl)-3,3-difluoropyrrolidine-1-sulfonamide], the Papp at 2 h, 1 µM in series [1] was 24 ×10⁻⁶ cm/s. Further, the half-maximal inhibitory concentration (IC50) in the series on H1755 cells was 29 nM; in the series on A375 cells, 6 nM; in series [2], 3 nM. Besides, the efflux ratio at 2 h, 1 µM at P-gp (MDR1) amounted to 3; at BCRP, 17.6.
Take `Cn1cnc2ccc(Nc3c(F)ccc(NS(=O)(=O)N4CC[C@@H](F)C4)c3Cl)c(Br)c2c1=O` [Example 24, (R)-N-(3-((5-bromo-3-methyl-4-oxo-3,4-dihydroquinazolin-6-yl)amino)-2-chloro-4-fluorophenyl)-3-fluoropyrrolidine-1-sulfonamide trifluoroacetate]: in series [1], the Papp at 2 h, 1 µM is 27 ×10⁻⁶ cm/s. Besides, the IC50 in the series on H1755 cells was found to be 25 nM; in the series with A375 cells it was 8 nM; in series [2], 2 nM. The efflux ratio at 2 h, 1 µM was determined as 2.5 at P-gp (MDR1) and 2.6 at BCRP.
On to `Cn1cnc2ccc(Nc3c(F)ccc(NS(=O)(=O)N4CCC(F)(F)C4)c3Cl)c(Cl)c2c1=O` [Example 25, N-(2-chloro-3-((5-chloro-3-methyl-4-oxo-3,4-dihydroquinazolin-6-yl)amino)-4-fluorophenyl)-3,3-difluoropyrrolidine-1-sulfonamide trifluoroacetate], for which the Papp at 2 h, 1 µM in series [1] was 30 ×10⁻⁶ cm/s. The half-inhibitory concentration (IC50) is 94 nM with H1755 cells, 16 nM with A375 cells and 2 nM in series [2]. The efflux ratio at 2 h, 1 µM was 1.6 at P-gp (MDR1) and 2.4 on BCRP.
In series [1], `Cn1cnc2ccc(Nc3c(F)ccc(NS(=O)(=O)N4CC[C@@H](OC(F)F)C4)c3Cl)c(F)c2c1=O` [Example 26, (R)-N-(2-chloro-4-fluoro-3-((5-fluoro-3-methyl-4-oxo-3,4-dihydroquinazolin-6-yl)amino)phenyl)-3-(difluoromethoxy)pyrrolidine-1-sulfonamide] yielded a Papp at 2 h, 1 µM of 31 ×10⁻⁶ cm/s. The half-maximal inhibitory concentration (IC50) in the series on H1755 cells was found to be 15 nM; in the series with A375 cells, 4 nM; in series [2], 6 nM. Moreover, the efflux ratio at 2 h, 1 µM at P-gp (MDR1) stood at 3.3; on BCRP, 3.7.
For `Cn1cnc2ccc(Nc3c(F)ccc(NS(=O)(=O)N4CC[C@H](F)C4)c3Cl)c(F)c2c1=O` [Example 27, (S)-N-(2-chloro-4-fluoro-3-((5-fluoro-3-methyl-4-oxo-3,4-dihydroquinazolin-6-yl)amino)phenyl)-3-fluoropyrrolidine-1-sulfonamide trifluoroacetate], in series [1], the Papp at 2 h, 1 µM came to 39 ×10⁻⁶ cm/s. Also, the IC50 stood at 27 nM in the series with H1755 cells, 5 nM with A375 cells and 5 nM in series [2]. The efflux ratio at 2 h, 1 µM at P-gp (MDR1) turned out to be 2.7; on BCRP, 4.4.
Take `Cn1cnc2ccc(Nc3c(F)ccc(NS(=O)(=O)N4CC[C@H](F)C4)c3Cl)c(Cl)c2c1=O` [Example 28, (S)-N-(2-chloro-3-((5-chloro-3-methyl-4-oxo-3,4-dihydroquinazolin-6-yl)amino)-4-fluorophenyl)-3-fluoropyrrolidine-1-sulfonamide]: the apparent permeability coefficient (Papp) at 2 h, 1 µM in series [1] amounted to 37 ×10⁻⁶ cm/s. Also, the IC50 was 38 nM in the series with H1755 cells, 7 nM in the series with A375 cells and 4 nM in series [2]. In addition, the efflux ratio at 2 h, 1 µM at P-gp (MDR1) was determined as 2; at BCRP it was 1.7.
For `Cn1cnc2ccc(Nc3c(F)c(F)cc(NS(=O)(=O)N4CCCC4)c3Cl)c(Cl)c2c1=O` [Example 31, N-(2-chloro-3-((5-chloro-3-methyl-4-oxo-3,4-dihydroquinazolin-6-yl)amino)-4,5-difluorophenyl)pyrrolidine-1-sulfonamide trifluoroacetate], in series [1], the Papp at 2 h, 1 µM worked out at 31 ×10⁻⁶ cm/s. Also, the IC50 with H1755 cells amounted to 168 nM; with A375 cells, 9 nM; in series [2], 1 nM. Besides, the efflux ratio at 2 h, 1 µM on P-gp (MDR1) is 1.2; at BCRP, 1.
The compound `CO[C@@H]1CCN(S(=O)(=O)Nc2cc(F)c(F)c(Nc3ccc4ncn(C)c(=O)c4c3Cl)c2Cl)C1` [Example 32, (R)-N-(2-chloro-3-((5-chloro-3-methyl-4-oxo-3,4-dihydroquinazolin-6-yl)amino)-4,5-difluorophenyl)-3-methoxypyrrolidine-1-sulfonamide trifluoroacetate] came in with a Papp at 2 h, 1 µM in series [1] of 32 ×10⁻⁶ cm/s. Besides, the IC50 in the series on H1755 cells amounted to 83 nM; in the series on A375 cells it was 5 nM; in series [2] it was 2 nM. In addition, the efflux ratio at 2 h, 1 µM stood at 1.8 at P-gp (MDR1) and 1 on BCRP.
`Cn1cnc2ccc(Nc3c(F)c(F)cc(NS(=O)(=O)N4CC[C@@H](F)C4)c3Cl)c(Cl)c2c1=O` [Example 33, (R)-N-(2-chloro-3-((5-chloro-3-methyl-4-oxo-3,4-dihydroquinazolin-6-yl)amino)-4,5-difluorophenyl)-3-fluoropyrrolidine-1-sulfonamide trifluoroacetate] gave a Papp at 2 h, 1 µM in series [1] of 25 ×10⁻⁶ cm/s. The IC50 in the series on H1755 cells amounted to 84 nM; with A375 cells it was 8 nM; in series [2] it was 1 nM. The efflux ratio at 2 h, 1 µM at P-gp (MDR1) came out at 1.7; at BCRP, 2.2.
